Data from US20230391760A1, “HETEROCYCLIC GLP-1 AGONISTS” (Gasherbrum Bio, Inc., priority 2020, published 2023).

Each molecule was assayed against GLP-1 Receptor (Homo sapiens, UniProt P43220) (assay: GLP-1R agonist cAMP stimulation assay (HEK293/GLP1R/CRE-LUC cells, cAMP dynamic 2 Kit)). Conditions: HEK293/CRE-Luc cell line stably expressing the GLP-1 Receptor, 30 min at 37° C.
Format: cell-based
Description: Activation of GLP-1 receptor is known to stimulate cyclic AMP (cAMP) production in cells which indicates primary coupling to the Gαs subunit of the G protein heterotrimeric complex. […] To optimize functional activity directed toward Gαs coupling, a HEK293/CRE-Luc cell line developed by HDB stably expressing the GLP-1 Receptor was used. 200×concentration of compound working solutions were prepared (Agilent Technologies Bravo) with 1/2 log serial dilution in 384-well Echo LDV plate (Labcyte, Cat #LP-0200). 50 nL/well 200× concentration of compound working solutions were moved to 384-well white low volume plate (Greiner,Cat #784075) using Labcyte ECHO550. 1×10^5 cells/mL HEK293/GLP1R/CRE-LUC(HD Biosciences) cell suspensions prepared with assay buffer[DPBS containing 0.5 mM IBMX(Sigma, Cat #15879) and 0.1% BSA (GENVIEW, Cat #FA016-100 g)], 10 uL cell suspensions were added to each well of previous generated assay plate which already contains 50 nl compound at 200×concentration using ThermoFisher Multidrop Combi (1000 cells/well). Seal the plate and incubate at 37° C. with 5% CO2 for 30 min. After incubation the cAMP assay signal was generated using cAMP dynamic 2 Kit (Cisbio). 5 μL cAMP-d2 working solution was added to each well, followed with 5 μL Anti-cAMP antibody-cryptate working solution added to each well using ThermoFisher Multidrop Combi. Incubate at room temperature for 1 hour protected from light.

GLP-1 Receptor, sequence (P43220 24-463, species assumed): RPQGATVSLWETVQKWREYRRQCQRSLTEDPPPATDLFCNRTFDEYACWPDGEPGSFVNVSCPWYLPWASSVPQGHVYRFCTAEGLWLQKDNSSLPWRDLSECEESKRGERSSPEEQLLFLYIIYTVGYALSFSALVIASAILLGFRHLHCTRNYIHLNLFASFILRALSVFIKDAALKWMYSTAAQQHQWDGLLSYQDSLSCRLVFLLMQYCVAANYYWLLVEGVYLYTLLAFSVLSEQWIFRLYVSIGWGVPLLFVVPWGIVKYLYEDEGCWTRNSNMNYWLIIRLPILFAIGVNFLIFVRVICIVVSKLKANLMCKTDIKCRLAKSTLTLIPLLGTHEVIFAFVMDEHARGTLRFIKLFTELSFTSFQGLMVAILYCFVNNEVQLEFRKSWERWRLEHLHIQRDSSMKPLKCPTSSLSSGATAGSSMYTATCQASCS

`C[C@H]1CN(c2nc(OCc3ccc(Cl)cc3F)ccc2F)CCN1Cc1nc2cc(-c3nnc(C(F)(F)F)[nH]3)ncc2n1C[C@@H]1CCO1` [Compound 525a, (2S)-4-{6-[(4-chloro-2-fluorophenyl)methoxy]-3-fluoropyridin-2-yl}-2-methyl-1-[(3-{[(2S)-oxetan-2-yl]methyl}-6-[5-(trifluoromethyl)-4H-1,2,4-triazol-3-yl]-3H-imidazo[4,5-c]pyridin-2-yl)methyl]piperazine] and `Fc1cc(Cl)ccc1COc1cccc(C2CCN(Cc3nc4cc(-c5nnc(C(F)(F)F)[nH]5)ncc4n3C[C@@H]3CCO3)CC2)n1` [Compound 435a, 2-[(4-chloro-2-fluorophenyl)methoxy]-6-{1-[(3-{[(2S)-oxetan-2-yl]methyl}-6-[5-(trifluoromethyl)-4H-1,2,4-triazol-3-yl]-3H-imidazo[4,5-c]pyridin-2-yl)methyl]piperidin-4-yl}pyridine] are within 1.5-fold of each other in EC50: 0.026 nM for the first, 0.018 nM for the second.

Going from `N#Cc1ccc(COc2cccc(C3=CCN(Cc4nc5cc(-c6noc(=O)[nH]6)cnc5n4C[C@@H]4CCO4)CC3)c2)c(F)c1` [Compound 318a, 3-fluoro-4-[(3-{1-[(3-{[(2S)-oxetan-2-yl]methyl}-6-(5-oxo-4,5-dihydro-1,2,4-oxadiazol-3-yl)-3H-imidazo[4,5-b]pyridin-2-yl)methyl]-1,2,3,6-tetrahydropyridin-4-yl}phenoxy)methyl]benzonitrile] to `O=c1[nH]c(-c2cc3nc(CN4CC=C(c5ccc(F)c(OCc6ccc(Cl)cc6F)c5)CC4)n(C[C@@H]4CCO4)c3cn2)no1` [Compound 299a, 3-{2-[(4-{3-[(4-chloro-2-fluorophenyl)methoxy]-4-fluorophenyl}-1,2,3,6-tetrahydropyridin-1-yl)methyl]-3-{[(2S)-oxetan-2-yl]methyl}-3H-imidazo[4,5-c]pyridin-6-yl}-4,5-dihydro-1,2,4-oxadiazol-5-one], the EC50 falls from 10 nM to 0.26 nM (38-fold).

Going from `C[C@]1(c2ccc(Cl)cn2)Oc2cccc(C3CCN(Cc4nc5cc(-c6nnc(C(F)(F)F)[nH]6)nnc5n4C[C@H]4CCOC4)CC3)c2O1` [Compound 474a, 5-chloro-2-[(2S)-2-methyl-4-{1-[(7-{[(3R)-oxolan-3-yl]methyl}-3-[5-(trifluoromethyl)-4H-1,2,4-triazol-3-yl]-7H-imidazo[4,5-c]pyridazin-6-yl)methyl]piperidin-4-yl}-2H-1,3-benzodioxol-2-yl]pyridine] to `CC1(c2ccc(Cl)cc2F)Oc2cccc(C3CCN(Cc4nc5cc(-c6nnc(C(F)(F)F)[nH]6)cnc5n4C[C@H]4CCOC4)CC3)c2O1` (stereo partly drawn) [Compound 401a, 4-[2-(4-chloro-2-fluorophenyl)-2-methyl-2H-1,3-benzodioxol-4-yl]-1-[(3-{[(3R)-oxolan-3-yl]methyl}-6-[5-(trifluoromethyl)-4H-1,2,4-triazol-3-yl]-3H-imidazo[4,5-b]pyridin-2-yl)methyl]piperidine], the EC50 falls from 1.5 nM to 0.6 nM (2.5-fold). The second is the more potent here.

Compared with `C[C@]1(c2ccc(Cl)cc2F)Oc2cccc(C3CCN(Cc4nc5cc(-c6nnc(C(F)(F)F)[nH]6)ncc5n4C[C@@H]4CCCO4)CC3)c2O1` [Compound 426a, 4-[(2S)-2-(4-chloro-2-fluorophenyl)-2-methyl-2H-1,3-benzodioxol-4-yl]-1-[(3-{[(2S)-oxolan-2-yl]methyl}-6-[5-(trifluoromethyl)-4H-1,2,4-triazol-3-yl]-3H-imidazo[4,5-c]pyridin-2-yl)methyl]piperidine], `CC1(c2ccc(Cl)cc2F)Oc2cccc(C3CCN(Cc4nc5cc(-c6nnc(C(F)(F)F)[nH]6)cnc5n4C[C@@H]4CCO4)CC3)c2O1` (single isomer, unassigned) [Compound 224c] is 6.3-fold lower in EC50: 0.088 nM for the first, 0.014 nM for the second.

First: Cn1cc(-c2ccc3c(c2)nc(CN2CCC(c4cccc5c4OC(C)(c4ccc(Cl)cc4F)O5)CC2)n3C[C@@H]2CCO2)nn1 (stereo partly drawn) [Compound 238a, 2-((4-(2-(4-chloro-2-fluorophenyl)-2-methylbenzo[d][1,3]dioxol-4-yl)piperidin-1-yl)methyl)-5-(1-methyl-1H-1,2,3-triazol-4-yl)-1-(((S)-oxetan-2-yl)methyl)-1H-benzo[d]imidazole]
Second: Cc1nnc(-c2ccc3c(c2)nc(CN2CCC(c4cccc5c4O[C@@](C)(c4ccc(Cl)cc4F)O5)CC2)n3C[C@@H]2CCO2)[nH]1 [Compound 406a, 2-({4-[(2S)-2-(4-chloro-2-fluorophenyl)-2-methyl-2H-1,3-benzodioxol-4-yl]piperidin-1-yl}methyl)-5-(5-methyl-4H-1,2,4-triazol-3-yl)-1-{[(2S)-oxetan-2-yl]methyl}-1H-1,3-benzodiazole]
The EC50 of the first is 6.7-fold higher: 0.12 nM for the first, 0.018 nM for the second. The second is the more potent here.

First: CC(=O)Nc1cnc2c(c1)nc(CN1CCC(c3cccc(OCc4ccc(Cl)cc4F)n3)CC1)n2C[C@@H]1CCO1 [Compound 131a, N-{2-[(4-{6-[(4-chloro-2-fluorophenyl)methoxy]pyridin-2-yl}piperidin-1-yl)methyl]-3-{[(2S)-oxetan-2-yl]methyl}-3H-imidazo[4,5-b]pyridin-6-yl}acetamide]
Second: O=C(Nc1ccc2c(c1)nc(CN1CCC(c3cccc(OCc4ccc(Cl)cc4F)n3)CC1)n2C[C@@H]1CCO1)C1CCOCC1 [Compound 153a, N-{2-[(4-{6-[(4-chloro-2-fluorophenyl)methoxy]pyridin-2-yl}piperidin-1-yl)methyl]-1-{[(2S)-oxetan-2-yl]methyl}-1H-1,3-benzodiazol-5-yl}oxane-4-carboxamide]
The EC50 of the first is 21-fold higher: 6.3 nM for the first, 0.3 nM for the second.

`C[C@]1(c2ccc(Cl)cc2F)Oc2cccc(C3CCN(Cc4nc5cc(-c6nnc(C(F)(F)F)[nH]6)ccc5n4CC4(C#N)CC4)CC3)c2O1` [Compound 412a, 1-{[2-({4-[(2S)-2-(4-chloro-2-fluorophenyl)-2-methyl-2H-1,3-benzodioxol-4-yl]piperidin-1-yl}methyl)-5-[5-(trifluoromethyl)-4H-1,2,4-triazol-3-yl]-1H-1,3-benzodiazol-1-yl]methyl}cyclopropane-1-carbonitrile] and `CC1(c2ccc(C#N)cc2Cl)Oc2cccc(C3CCN(Cc4nc5cc(-c6nnc(C(F)(F)F)[nH]6)ccc5n4C[C@@H]4CCO4)CC3)c2O1` (stereo partly drawn) [Compound 353a, 3-chloro-4-(2-methyl-4-{1-[(1-{[(2S)-oxetan-2-yl]methyl}-5-[5-(trifluoromethyl)-4H-1,2,4-triazol-3-yl]-1H-1,3-benzodiazol-2-yl)methyl]piperidin-4-yl}-2H-1,3-benzodioxol-2-yl)benzonitrile] are within 1.5-fold of each other in EC50: 0.033 nM for the first, 0.026 nM for the second.

Going from `CC(=O)Nc1ccc2c(c1)nc(CN1CCC(c3cccc4c3OC(C)(c3ccc(Cl)cc3F)O4)CC1)n2C[C@@H]1CCO1` (stereo partly drawn) [Compound 115a, N-(2-((4-(2-(4-chloro-2-fluorophenyl)-2-methylbenzo[d][1,3]dioxol-4-yl)piperidin-1-yl)methyl)-1-((S)-oxetan-2-ylmethyl)-1H-benzo[d]imidazol-5-yl)acetamide] to `CC1(c2ccc(Cl)cc2F)Oc2cccc(C3CCN(Cc4nc5cc(-c6noc(=O)[nH]6)ccc5n4C[C@@H]4CCO4)CC3)c2O1` (single isomer, unassigned) [Compound 239c], the EC50 falls from 1.17 nM to 0.55 nM (2.1-fold).

Going from `Fc1cc(Cl)ccc1COc1cc(N2CCN(Cc3nc4cc(-c5nnc(C(F)(F)F)[nH]5)nnc4n3C[C@@H]3CCO3)CC2)ccc1F` [Compound 483a, 1-{3-[(4-chloro-2-fluorophenyl)methoxy]-4-fluorophenyl}-4-[(7-{[(2S)-oxetan-2-yl]methyl}-3-[5-(trifluoromethyl)-4H-1,2,4-triazol-3-yl]-7H-imidazo[4,5-c]pyridazin-6-yl)methyl]piperazine] to `N#Cc1ccc(COc2cccc(N3CCN(Cc4nc5cc(-c6nnc(C(F)(F)F)[nH]6)nnc5n4C[C@@H]4CCO4)CC3)n2)c(F)c1` [Compound 493a, 3-fluoro-4-{[(6-{4-[(7-{[(2S)-oxetan-2-yl]methyl}-3-[5-(trifluoromethyl)-4H-1,2,4-triazol-3-yl]-7H-imidazo[4,5-c]pyridazin-6-yl)methyl]piperazin-1-yl}pyridin-2-yl)oxy]methyl}benzonitrile], the EC50 falls from 0.51 nM to 0.044 nM (12-fold).

Going from `Fc1cc(Cl)ccc1COc1cc(C2=CCN(Cc3nc4cc(-c5nnc(C(F)(F)F)[nH]5)ncc4n3C[C@@H]3CCO3)CC2)ccc1F` [Compound 297a, 4-{3-[(4-chloro-2-fluorophenyl)methoxy]-4-fluorophenyl}-1-[(3-{[(2S)-oxetan-2-yl]methyl}-6-[5-(trifluoromethyl)-4H-1,2,4-triazol-3-yl]-3H-imidazo[4,5-c]pyridin-2-yl)methyl]-1,2,3,6-tetrahydropyridine] to `C[C@]1(c2ccc(Cl)cn2)Oc2cccc(C3CCN(Cc4nc5cc(-c6nnn[nH]6)ncc5n4C[C@@H]4CCO4)CC3)c2O1` [Compound 449a, 5-chloro-2-[(2S)-2-methyl-4-{1-[(3-{[(2S)-oxetan-2-yl]methyl}-6-(1H-1,2,3,4-tetrazol-5-yl)-3H-imidazo[4,5-c]pyridin-2-yl)methyl]piperidin-4-yl}-2H-1,3-benzodioxol-2-yl]pyridine], the EC50 falls from 0.098 nM to 0.016 nM (6.1-fold). The second is the more potent here.

With `CO[C@@H](C)Cn1c(CN2CCC(c3cccc4c3O[C@@](C)(c3ccc(C#N)cc3F)O4)CC2)nc2cc(-c3noc(=O)[nH]3)ncc21` [Compound 443a, 3-fluoro-4-[(2S)-4-[1-({3-[(2S)-2-methoxypropyl]-6-(5-oxo-4,5-dihydro-1,2,4-oxadiazol-3-yl)-3H-imidazo[4,5-c]pyridin-2-yl}methyl)piperidin-4-yl]-2-methyl-2H-1,3-benzodioxol-2-yl]benzonitrile] the EC50 was 0.28 nM.
